Earlier results, collected in article PMC3085280 (Tetrahedron, 2009).

Test system: κ-opioid

For `COC(=O)[C@@H]1C[C@H](OC(C)=O)C(=O)[C@H]2[C@@]1(C)CC[C@H]1C(=O)O[C@H](c3ccoc3)C[C@]21C` [Compound 1, Salvinorin A], which κ-opioid agonist activity is on record?
The κ-opioid agonist activity was “potent and selective κ-opioid agonist”.
